Laboratory results taken from patent publication US10899744B2, “Crystalline form of compound suppressing protein kinase activity, and application thereof” (XCOVERY HOLDINGS, INC., priority 2016, dated 2021).
Values after ≈ are worked out from the molar mass of the structure shown.

Key:
[1] = Assay of Dynamic Vapor Sorption (DVS); assay type: physicochemical; conditions: for weight change: range of 0% to 80% RH
[2] = Solubility determination in water; assay type: physicochemical; conditions: room temperature
[3] = Stability of the crystalline form; assay type: physicochemical
[4] = Pharmacokinetics in female SD rats, intragastric gavage; assay type: in vivo; conditions: PO
Experimental: 6 female SD rats were divided into two groups, three rats in each group. 50 mg/kg of Crystalline form A of the compound of formula I and free base amorphis of the compound of formula I were administered by intragastric gavage at single dose to each female SD rat respectively; the blood samples were collected through the jugular vein at the specified time, and the plasma from these samples was separated and stored in the refrigerator at −80° C.
For the above plasma from these samples, protein was precipitated using acetonitrile, the supernatant was diluted 3-fold by water, then took 5 μL of the solution for LC-MS/MS test, and data is shown in Table 9: […]

[5] = Sprague-Dawley, rat, 50 mg/kg single dose, plasma

In the case of `C[C@@H]1CN(C(=O)c2ccc(NC(=O)c3cc(O[C@H](C)c4c(Cl)ccc(F)c4Cl)c(N)nn3)cc2)C[C@H](C)N1` [Amorphis], the weight change [1] is reported as “about 15.7%” and the hygroscopicity judgment ([1]; weight change 0-80% RH) is reported as “extremely hygroscopic”.
With `C[C@@H]1CN(C(=O)c2ccc(NC(=O)c3cc(O[C@H](C)c4c(Cl)ccc(F)c4Cl)c(N)nn3)cc2)C[C@H](C)N1` [Crystalline form A] the solubility [2] was 20 to 100 mg/mL (≈ 35.6 to 178 mM), the moisture removed ([1]; 0% RH drying stage) was “about 1.5%” and the moisture absorbed ([1]; 0% RH-80% RH range) was “about 2.3%”. For the same compound, the moisture removed ([1]; desorption stage, 30% RH) was 1.5%, the weight change [1] was “about 2.3%” and the “change of the weight” value ([1]; range of 30-80% RH) was “less than 2%”. For the same compound, the “change in crystalline form” value ([3]; 25° C.-60% RH for 10 days) was “no change in crystalline form”, the “change in crystalline form” value ([3]; 40° C.-75% RH for 10 days) was “no change in crystalline form” and the “change in crystalline form” value ([3]; 80° C. for 24 hours) was “no change in crystalline form”. The “absorption in vivo compared with the free base amorphis” value ([4]; 50 mg/kg) was “higher absorption in vivo”, the AUC(0-t) [4, 5] was 11.6 µg·h/mL and the Cmax [4, 5] was 1.44 µg/mL. It also gave a Tmax [4, 5] of 2.67 h.
With `C[C@@H]1CN(C(=O)c2ccc(NC(=O)c3cc(O[C@H](C)c4c(Cl)ccc(F)c4Cl)c(N)nn3)cc2)C[C@H](C)N1` [Crystalline form B] the moisture absorbed ([1]; 10% RH in the adsorption stage) was “about 4%”, the weight change [1] was “about 2.3%” and the change of weight ([1]; range of 10-80% RH) was “less than 2%”. For the same compound, the moisture removed ([1]; under 10% RH) was “about 4%”, the “change in crystalline form” value ([3]; 25° C.-60% RH for 10 days) was “no change in crystalline form” and the “change in crystalline form” value ([3]; 40° C.-75% RH for 10 days) was “no change in crystalline form”. The “change in crystalline form” value ([3]; 80° C. for 24 hours) was “no change in crystalline form”.
For `C[C@@H]1CN(C(=O)c2ccc(NC(=O)c3cc(O[C@H](C)c4c(Cl)ccc(F)c4Cl)c(N)nn3)cc2)C[C@H](C)N1` [Crystalline form C], the “change in crystalline form” value ([3]; dried in vacuum at room temperature overnight) was “almost completely converted to Crystalline form A”.
